Results reported in patent US20250339051A1, “DYNAMIC CHEMICAL-EXCHANGE-SATURATION-TRANSFER (CEST) AGENT ENHANCED MRI USING DIRECT WATER SATURATION” (The Johns Hopkins University, priority 2024, published 2025).
Where two headings read alike, the source gives them in different places.

Legend:
[1] = cited from earlier work
brain tumor patients [2] = conditions: cited from earlier work
brain tumor patients [3] = test: DS-DGE MRI at 3 T in brain tumor patients with D-Glc infusion; parameters: species or system human; conditions: in vivo
Source text: Four brain tumor patients were studied (one with an IDH-wildtype glioblastoma, two with a grade 2 IDH-mutated astrocytoma, and one with ALK-mutated non-small-cell lung cancer metastases). The project was approved by the local Institutional Review Board, and each participant provided written informed consent. Participants were asked to fast six hours before the study, but clear liquids were permitted. Before the start of the MRI examination, blood was drawn to verify normal baseline glucose levels (3.9-7.0 mM).
Patients were examined on a 3 T Philips Elition RX system (Philips Healthcare, Best, the Netherlands). Pre- and post-contrast enhanced T1-MPRAGE, FLAIR, DS-DGE, DCE and DSC images were acquired T1-MPRAGE: TR/TE/FA=7.5 ms/3.5 ms/8°, FOV=212×212 mm^2, resolution=1.1×1.1×2.2 mm^3, inversion time=755 ms, acquisition time=1 min 46 s, and FLAIR: TR/TE=11,000/120 ms, FOV=212×212 mm^2 resolution=1.1×1.1×2.2 mm^3, inversion time=2800 ms, acquisition time=3 min 51 s.
DS-DGE images were acquired using ten consecutive 50-ms sinc-gaussian pulses (B1peak=0.5 μTtsat=0.5 s), followed by a whole-brain simultaneous multi-slice EPI readout (multi-band factor 3). A total of 27 slices with FOV of 208×208 mm^2 and a resolution of 2.2×2.2×4.4 mm^3 were acquired using TR/TE/FA=1200 ms/17 ms/52°. 32 frequencies were acquired in 38.2 s at offsets: ±[10 (2×), 5.0, 2.5, 2.0, 1.5, 1.2, 1.0, 0.80, 0.70, 0.60, 0.50, 0.40, 0.30, 0.20, 0.10] ppm. In total 40 dynamics (Z-spectra) were acquired. Approximately five minutes into the scan (after the 8th dynamic), D-Glc was administrated intravenously with a power-injector at a rate of 6.25 g/min using hospital-grade D50 glucose (D50, Hospira Inc., Lake Forest, IL; 35 g of D-Glc in 70 mL of water sterile solution prepared by the Johns Hopkins pharmacy), followed by a saline rinse. Total experiment duration was 25.5 min.
The dynamic DS spectrum signal intensities from each voxel were normalized using the average of the second of two acquisitions at ±10 ppm and then fitted to a Lorentzian line shape using the DL-based single Lorentzian fitting neural network (sLoFNet)^43. The linewidths, defined as FWHM in the DL fitting, were used to generate LW maps (in Hz) for each dynamic. The dynamic linewidth maps were rigid motion corrected using Elastix^48 and visually inspected for remaining motion artefacts.
A baseline was calculated by averaging the linewidth maps obtained before infusion. To remove outliers, baseline LWs greater or less than the average±2SD were discarded. LWbase was then calculated by averaging the remaining baseline LWs. Dynamic ΔLW images were obtained by subtracting LWbase from each linewidth dynamic image, LW(t), followed by normalization with LWbase:
Normalized area-under-the-curve (AUC) was calculated by subtracting LWbase from the average of dynamic LWs obtained from infusion start and through the dynamic scan (LWaverage), followed by normalization with LWbase:
Normalized AUC over the infusion block alone was also calculated. Both fitting and calculations were performed in Python.

[4] = cited from earlier work; remark: listed apart in the source

## O=C[C@H](O)[C@@H](O)[C@H](O)[C@H](O)CO [D-glucose]
[1]; D-Glc dose of 25 g, N=11, previous DGE MRI study
  venous plasma blood glucose average increase: 9.8 mM
[1]; maximum D-Glc dose of 25 g, previous DGE studies
  increase in plasma blood glucose: up to 15 mM
Brain tumor patients [2]; contrast enhanced tumor area, LGG and HGG patients, maximum dose 20 g of D-Glc in 100 mL, Bender et al.
  DGE MRI effect size: ≤ 0.25%
Brain tumor patients [2]; glioblastoma, 3 T, Xu et al.
  DGE MRI effect size: approximately 1.5%
Brain tumor patients [2]; low and high grade glioma enhancement areas, dose of 25 g, Mo et al.
  DGE MRI effect size: 0.5-1.5%
Brain tumor patients [2]; metastases, Wu et al.
  DGE MRI signal increase after D-Glc infusion: ≤ 10%
Brain tumor patients [3]; (ventricular) CSF, 35 g D-glucose infusion, 3 T
  ΔLW (DS linewidth change): ~40%
Brain tumor patients [3]; GM/WM, 35 g D-glucose infusion, 3 T
  ΔLW (DS linewidth change): approximately 1%
Brain tumor patients [3]; contrast enhanced peri-cavity infiltrative tumor region, recurrent IDH-wildtype glioblastoma patient, during infusion
  ΔLW (DS linewidth change): approximately 15%
Brain tumor patients [3]; different tumor types, 35 g D-glucose infusion, 3 T
  ΔLW (DS linewidth change): 5-20%
Brain tumor patients [3]; white matter, lung cancer brain metastases patient
  LW change: negligible
[4]; hydroxyl pool at 0.66 ppm, pH 6.8 (TUMOR EES)
  hydroxyl proton exchange rate: 1500 Hz
[4]; hydroxyl pool at 0.66 ppm, pH 7.2, 37° C.
  hydroxyl proton exchange rate: 2900 Hz
[4]; hydroxyl pool at 1.28 ppm, pH 6.8 (TUMOR EES)
  hydroxyl proton exchange rate: 3100 Hz
[4]; hydroxyl pool at 1.28 ppm, pH 7.2, 37° C.
  hydroxyl proton exchange rate: 6500 Hz
[4]; hydroxyl pool at 2.08 ppm, pH 6.8 (TUMOR EES)
  hydroxyl proton exchange rate: 2500 Hz
[4]; hydroxyl pool at 2.08 ppm, pH 7.2, 37° C.
  hydroxyl proton exchange rate: 5200 Hz
[4]; hydroxyl pool at 2.88 ppm, pH 6.8 (TUMOR EES)
  hydroxyl proton exchange rate: 6000 Hz
[4]; hydroxyl pool at 2.88 ppm, pH 7.2, 37° C.
  hydroxyl proton exchange rate: 14300 Hz
